Test results published in DBAASP.
Values after ≈ are worked out from the molar mass of the structure shown.

Columns and labels:
Experiment in all cases: ≥ marks a high value that may be exact or a test limit, other limits are often not marked, values filed in µg/mL are converted to µM
[1] = system: Enterococcus faecalis ATCC 29212
Candida albicans = system: Candida albicans
[2] = system: Staphylococcus epidermidis
[3] = system: Salmonella enterica serovar Typhimurium
[4] = system: Staphylococcus aureus ATCC 25923
[5] = system: Pseudomonas aeruginosa H103
Escherichia coli UB1005 = system: Escherichia coli UB1005
[6] = system: Staphylococcus aureus ATCC 6538
[7] = system: Escherichia coli ATCC 11219
[8] = system: Klebsiella pneumoniae ATCC 10031
[9] = system: Pseudomonas aeruginosa ATCC 13388
[10] = system: Salmonella enterica subsp. enterica serovar Typhimurium ATCC 14028
[11] = system: Saccharomyces cerevisiae KCTC 7296
Acinetobacter baumannii = system: Acinetobacter baumannii
[12] = system: Salmonella typhimurium KCTC 1926
[13] = system: Proteus vulgaris KCTC 2433
[14] = system: Acinetobacter baumannii KCTC 2508
[15] = system: Trichosporon beigelii KCTC 7707
[16] = system: Staphylococcus aureus KCTC 1621
[17] = system: Bacillus subtilis KCTC 1918
[18] = system: Candida albicans TIMM 1768

MIC [11] | MIC [12] | MIC [13] | MIC [15] | MIC [16] | MIC [17] | MIC [18] | also measured | SMILES
– | – | – | – | – | – | – | MIC [1]: 2.9 µM (≈ 5.79 µg/mL); MIC (Candida albicans): 2.9 µM (≈ 5.79 µg/mL); MIC [2]: 0.7 µM (≈ 1.4 µg/mL); MIC [3]: 5.7 µM (≈ 11.4 µg/mL); MIC [4]: 0.7 µM (≈ 1.4 µg/mL); MIC [5]: 5.7 µM (≈ 11.4 µg/mL); MIC (Escherichia coli UB1005): 1.4 µM (≈ 2.8 µg/mL) | CC[C@H](C)[C@H](N)C(=O)N[C@@H](CC(C)C)C(=O)N1CCC[C@H]1C(=O)N[C@@H](Cc1c[nH]c2ccccc12)C(=O)N[C@@H](CCCCN)C(=O)N[C@@H](Cc1c[nH]c2ccccc12)C(=O)N[C@@H](CCCN=C(N)N)C(=O)N[C@@H](Cc1c[nH]c2ccccc12)C(=O)N[C@@H](Cc1c[nH]c2ccccc12)C(=O)N[C@@H](CCCCN)C(=O)N[C@@H](Cc1c[nH]c2ccccc12)C(=O)N[C@@H](CCCN=C(N)N)C(=O)N[C@@H](CCCN=C(N)N)C(=O)O [ILPWKWRWWKWRR]
– | – | – | – | – | – | – | MIC [6]: 10 µM (≈ 13.4 µg/mL); MIC [7]: ≥ 50 µM; MIC [8]: ≥ 50 µM; MIC [9]: 10 µM (≈ 13.4 µg/mL); MIC [10]: 3 µM (≈ 4.02 µg/mL) | CC[C@H](C)[C@H](NC(=O)[C@H](C)N)C(=O)N[C@@H](Cc1cnc[nH]1)C(=O)N[C@@H](CC(=O)O)C(=O)N[C@H](C(=O)N[C@@H](CC(C)C)C(=O)N[C@@H](CCCCN)C(=O)N[C@@H](Cc1ccc(O)cc1)C(=O)NCC(=O)N[C@@H](CCCCN)C(=O)N1CCC[C@H]1C(=O)N[C@@H](CO)C(N)=O)[C@@H](C)CC [AIHDILKYGKPS]
12.5 µM (≈ 26.2 µg/mL) | 0.39 µM (≈ 0.819 µg/mL) | 6.25 µM (≈ 13.1 µg/mL) | 17.7 µM (≈ 37.1 µg/mL) | 1.56 µM (≈ 3.28 µg/mL) | 0.78 µM (≈ 1.64 µg/mL) | 12.5 µM (≈ 26.2 µg/mL) | MIC (Acinetobacter baumannii): 6.25 µM (≈ 13.1 µg/mL); MIC [14]: 6.25 µM (≈ 13.1 µg/mL) | CC[C@H](C)[C@H](NC(=O)CNC(=O)[C@H](CC(C)C)NC(=O)[C@H](CCCN=C(N)N)NC(=O)[C@H](CCCCN)NC(=O)[C@H](Cc1ccccc1)NC(=O)[C@@H](NC(=O)[C@H](CCCCN)NC(=O)[C@H](CCCCN)NC(=O)[C@H](C)N)C(C)C)C(=O)NCC(=O)N[C@@H](C)C(=O)N[C@H](C(=O)N[C@@H](CC(C)C)C(=O)N[C@@H](CCCCN)C(=O)N[C@H](C(=O)N[C@@H](CC(C)C)C(=O)N[C@H](C(=O)N[C@H](C(=O)NCC(=O)O)[C@@H](C)O)[C@@H](C)O)C(C)C)C(C)C [AKKVFKRLGIGAVLKVLTTG]
14.1 µM (≈ 42.5 µg/mL) | – | – | 14.1 µM (≈ 42.5 µg/mL) | – | – | 14.1 µM (≈ 42.5 µg/mL) | – | CC[C@H](C)[C@H](NC(=O)[C@@H](NC(=O)[C@@H](N)CCCNC(=N)N)[C@@H](C)CC)C(=O)N[C@@H](CC(=O)O)C(=O)N[C@@H](CC(C)C)C(=O)N[C@@H](CC(C)C)C(=O)N[C@@H](Cc1c[nH]c2ccccc12)C(=O)N[C@@H](CCCNC(=N)N)C(=O)N[C@H](C(=O)N[C@@H](CCCNC(=N)N)C(=O)N[C@@H](CCCNC(=N)N)C(=O)N1CCC[C@H]1C(=O)N[C@@H](CCC(N)=O)C(=O)N[C@@H](Cc1c[nH]c2ccccc12)C(=O)N1CCC[C@H]1C(=O)N[C@@H](CCCCN)C(=O)N[C@@H](Cc1ccccc1)C(=O)N[C@H](C(=O)N[C@H](C(=O)N[C@H](C(=O)N[C@@H](Cc1c[nH]c2ccccc12)C(=O)N[C@H](C(=O)N[C@H](C=O)CCCNC(=N)N)C(C)C)C(C)C)[C@@H](C)O)C(C)C)C(C)C [RIIDLLWRVRRPQWPKFVTVWVR]
≥ 50 µM | 0.78 µM (≈ 1.75 µg/mL) | 3.12 µM (≈ 7 µg/mL) | ≥ 50 µM | 3.12 µM (≈ 7 µg/mL) | 6.25 µM (≈ 14 µg/mL) | ≥ 50 µM | – | CC[C@H](C)[C@H](NC(=O)CNC(=O)[C@H](CC(C)C)NC(=O)[C@H](CCCN=C(N)N)NC(=O)[C@H](CCCCN)NC(=O)[C@H](Cc1ccccc1)NC(=O)[C@@H](NC(=O)[C@H](CCCCN)NC(=O)[C@H](CCCCN)NC(=O)[C@H](C)N)C(C)C)C(=O)NCC(=O)N[C@@H](C)C(=O)N[C@H](C(=O)N[C@@H](CC(C)C)C(=O)N[C@@H](Cc1c[nH]c2ccccc12)C(=O)N[C@H](C(=O)N[C@@H](CC(C)C)C(=O)N[C@H](C(=O)N[C@@H](Cc1c[nH]c2ccccc12)C(=O)NCC(=O)O)[C@@H](C)O)C(C)C)C(C)C [AKKVFKRLGIGAVLWVLTWG]
